Consider four molecules from patent US10011552B2, “Process for preparation of herbicidal carboxylic acid salts” (ROTAM AGROCHEM INTERNATIONAL COMPANY LIMITED, priority 2013, dated 2018).

The series can be described thus: pH value of the dried carboxylic acid salt in water. Conditions: dried salt cake dissolved in water. Type of series: physicochemical.
In the case of `COc1c(Cl)ccc(Cl)c1C(=O)[O-].[Na+]` [dicamba-sodium], the “pH value in water” value came out at 7.

With `O=C([O-])c1c(Cl)ccc2cc(Cl)cnc12.[Na+]` [quinclorac-sodium], the “pH value in water” value was determined as 10.

Turning to `Cc1cc(Cl)ccc1OCC(=O)[O-].[K+]` [MCPA-potassium], the “pH value in water” value was 9.

Regarding `O=C(O)c1nc(Cl)ccc1Cl.OCCNCCO` [clopyralid-bis(2-hydroxyethyl)ammonium], the “pH value in water” value was 8.
